Data on three molecules can be found in patent US6372940B1, “Process for the preparation of non-hygroscopic salts of L(−)-carnitine” (Sigma-Tau Industrie Farmaceutiche Riunite S.p.A, priority 1999, dated 2002).

Series [1] is described as follows: Tapped density of the granulate (U.S. Pharmacopoeia method). Conditions: for tapped density of the granulate: product of the humid melting process of the invention, USP 23 NF 18 method. It counts as physicochemical. The text has this:
It is in fact known that an inadequately low density (for example, for L(−)-carnitine acid fumarate, a tapped density value below 0.7 g/mL) provides a too light and flaky product which involves serious processability problems. The bulk density is not a reliable parameter for granulated or powdery products, in that even imperceptible perturbations of the test sample can give rise to remarkably different bulk density values. For the characterization of the density of said materials the tapped density is preferably used, which is the limit density obtained after tapping down the material by subjecting a graduated cylinder containing the granulate or powder to strokes, namely by hoisting the cylinder to a fixed height then dropping it for a fixed number of times. The tapped density is usually determined according to the method described in U.S. Pharmacopoeia, National Formulary, Supplement, USP 23, NF 18, Nov. 15, 1997, pages 3976-3977. Said method is herein incorporated by reference. The material is passed through a 1 mm (n. 18 mesh) sieve to crush any agglomerates formed during storage. About 100 g (M) of the test material are placed without tapping down in a 250 mL graduated cylinder. Using a suitable device, the cylinder is hoisted then dropped under the action of its own weight, from a height of 14+2 mm, with a 300 times/minute fall frequency. The volume of the material after a first 500 fall cycle is then measured. […] The tapped density, in g/mL, is expressed by the formula: M/Vf.

The nature of series [2]: Hygroscopicity and storage behaviour of the granulate. It counts as physicochemical. As to conditions: ground to the desired particle size.

For the molecule `C[N+](C)(C)C[C@H](O)CC(=O)O.C[N+](C)(C)C[C@H](O)CC(=O)O.O=C([O-])C(O)C(O)C(=O)[O-]` [Example 3, L(−)-carnitine Tartrate (2:1)], in series [1], the “tapped density of the granulate” value is listed as 0.83 g/mL.

Consider “L(−)-carnitine Acid Fumarate [Example 1]”, for which the “tapped density of the granulate” value in series [1] is reported as 0.84 g/mL. For the same molecule, in series [2], the “hygroscopicity of the granulate” value was “non-hygroscopic” and the “stability of the granulate in time (packing and/or aggregation)” value is listed as “remained unchanged in time without undergoing packing and/or aggregation”.

“L(−)-carnitine Acid Fumarate [Example 2]”: the “Physico-chemical characteristics of the final compound” value in series [1] (prepared in the presence of a crystallization initiator) is reported as “the same as those obtained in the preparation of Example 1”.
